From patent US11365181B2, “P-phenylenediamine derivative as potassium channel regulator and preparation method and medical application thereof” (Shanghai Zhimeng Biopharma, Inc., priority 2018, dated 2022)
Like-named read-outs stand apart in the source and are kept apart here.

How the values were obtained:
[1] = target: KCNQ2 potassium channel (CHO-KCNQ2 cells) (Homo sapiens (Human), UniProt O43526); experiment: Activity test of potassium ion channel opener (FDSS/μCELL detection, FluxOR potassium ion channel assay); format: cell-based; details: for EC50: CHO-KCNQ2 cells, FluxOR fluorescence, FDSS/μCELL; for increase of activity versus 6-membered ring comparison compound (ratio of EC50): 03043 vs compound A, 03058 vs compound B
Protocol: Activity Test of Potassium Ion Channel Opener (FDSS/ρCELL Detection)
Cell preparation: CHO-KCNQ2 cells were cultured in a 175 cm^2 culture flask, and when the cells was grown to a density of 60-80%, the culture medium was removed, washed with 7 mL PBS (Phosphate Buffered Saline) once, then 3 mL 0.25% Trypsin was added to digest. After the digestion was completed, 7 mL culture medium (90% DMEM/F12+10% FBS+500 μg/mL G418) was added to neutralize, centrifugated for 3 minutes at 800 rpm. The supernatant was aspirated, then 5 mL culture medium was added to resuspend, and then the cells were counted.
Cell plating: The density to 3×10^4/well was adjusted according to the results of cell counting. After standing at room temperature for 30 minutes, the cells were placed in a 37° C. CO2 incubator and incubated overnight for 16-18 hours. The cell density reached about 80%.
Fluorescent dye incubation: The cell culture medium was discarded, 80 μL/well loading buffer was added, and the cells were incubated in dark at room temperature for 60 minutes.
Compound incubation: the loading buffer was discarded, 80 μL/well prepared compound solution was added, incubated at room temperature and in dark for 20 minutes.
Fluorescence data collection: FDSS/μCELL instrument for real-time fluorescence is used for signal recording, wherein excitation wavelength was 480 nm, emission wavelength was 540 nm, and signals were recorded 1 times per second, after baseline was recorded for 10 seconds, the addition of 20 μL/well stimulation buffer was started, and then the signal was continuously record until the end of 180 seconds.
loading buffer: 10 mL/plate, the preparation method was as follows:
Test buffer sample: 100 mL/plate, the preparation method was as follows:
Stimulation buffer: 5 mL/plate, the preparation method was as follows:
The above buffer was from a commercially available kit, the kit name was FluxOR potassium ion channel assay, the manufacturer's brand was Invitrogen, the article number was F10017, the lot number was 913728.
20 mM DMSO compound mother liquor was prepared, 10 μL of 20 mM compound mother liquor was took and added into 20 μL DMSO solution, serially diluted 3 times to 8 intermediate concentrations; then the middle concentration of the compound was took to the test buffer, 200 times dilution to get the final concentration to be tested, 80 μL was took and added to the test plate.
The highest test concentration was 100 μM, followed by […], 33.33, 11.11, 3.70, 1.23, 0.41, 0.137, 0.045 μM, total 8 concentrations. Each concentration 3 replicate holes.
This concentration of DMSO had no effect on the KCNQ2 potassium channel.
Experimental data was analyzed by Excel 2007 and GraphPad Prism 5.0 software, and the ratio of 180 seconds was calculated to calculate the excitement effect. The excitement effect of the compound is calculated by the following formula: […]
Environment: Temperature about 25° C.
Reagent: FluxOR™ Detection Kit (Invitrogen, Cat #[…])
The experimental data in the report might meet the following criteria: Z′ Factor>0.5
2. Determination Results: See Table 1 for Details, where the Smaller EC50 was, the Higher the Activity of the Corresponding Compound was.
References for the above test methods:
(2) Jinfeng Yue et al. Acta Pharmacologica Sinica, 2016, 37:105-110.

[2] = Pharmacokinetics of compounds 03043 and 03044 in male SD rats; format: in vivo; details: for AUC(0-inf) / AUC(0-t) / Cmax / half-life / Tmax: rat, plasma
Text: (§1) Study on the Pharmacokinetics of Compounds 03043 and 03044
(§2) 1) Research purpose: To obtain the pharmacokinetic characteristics of compounds 03043 and 03044 in male SD rats and their blood-brain barrier (BBB) penetration
(§3) 15 healthy male SD rats (weight range of 200-250 g) were taken and divided into 3 groups, 3 rats were used for intravenous administration in group 1, 3 rats were used for oral administration in group 2, and 9 rats were used for the determination of cerebral blood ratio after oral administration in group 3 (3 rats/time point). Group 2 and group 3 were fasted for more than 12 hours. Intravenous: 1 mg/kg, oral 5 mg/kg, at time point 0.083 (only group 1), 0.25 (only groups 1 and 2), 0.5 (only groups 1 and 2), 1.2 (only groups 1 and 2). After 4, 8 and 24 h (only group 1 and group 2), blood was collected by jugular vein or cardiac puncture, and at least 0.3 mL of whole blood was collected into an EDTA-K2 anticoagulant tube. Within half an hour, the plasma was collected by centrifugation (6000 revolutions, 8 minutes, 4° C.), frozen at −20° C. for later use. At the same time, brain tissues were collected from group 3 (time points were 1, 4, and 8 h respectively), washed with normal saline, blotted dry with absorbent paper, weighed, and frozen at −20° C. for use. (Compound preparation: 5% DMAC+10% Solutol HS 15+85% Saline was used to prepare a solution having a concentration of iv 0.2 mg/mL and po 0.3 mg/mL).
(§4) Experimental results: According to the blood drug concentration data obtained, the non-compartmental model of WinNonlin® 7.0 software (Pharsight, USA) was used to calculate the pharmacokinetic parameters after administration.

[3] = Plasma and brain concentration / cerebral blood ratio (BBB penetration) in male SD rats after single oral administration; format: in vivo; details: rat; for concentration at 1 h / Kp at 1 h: 1 h after single oral administration 5 mg/kg; for concentration at 4 h / Kp at 4 h: 4 h after single oral administration 5 mg/kg; for concentration at 8 h / Kp at 8 h: 8 h after single oral administration 5 mg/kg; for Kp / Kp at 1 h / Kp at 4 h / Kp at 8 h: brain/plasma; for Kp: 5 mg/kg, at each time point (1, 4, 8 h), oral administration
Text: as §1, §2, §3

[4] = Pharmacokinetic study of compound 03058 in male ICR mice; format: in vivo
Protocol: Pharmacokinetic Study of Compound 03058
1) Research purpose: To obtain the pharmacokinetic characteristics of compound 03058 in male ICR mice
6 healthy male ICR mice (body weight range of 18-22 grams) were taken, divide them into 2 groups (3 mice/group, and 3 mice/time point), fasted for more than 12 hours (only oral administration group), and administered intravenously(0.05 mg/kg), orally (1 mg/kg), at time points of 0.083 (intravenous administration only), 0.25, 0.5, 1, 2, 4, 6 (only oral administration). After 8 and 24 h, blood were collected by cardiac puncture. At least 0.3 mL of whole blood was transferred to the EDTA-K2 anticoagulation tube, and within half an hour, the plasma was collected by centrifugation (6000 rpm, 8 minutes, 4° C.), and frozen at −20° C. for use. (Compound configuration: 5% DMAC+10% Solutol HS 15+85% Saline was used to prepare a solution having a concentration of iv 0.01 mg/mL and po 0.1 mg/mL).
as §4

[5] = brain, read-out: Brain concentration
[6] = plasma, read-out: Plasma concentration
[7] = mouse, Intravenous 0.05 mg/kg, plasma
[8] = mouse, po, Gavage 1 mg/kg, plasma

Chain of KCNQ2 potassium channel (CHO-KCNQ2 cells) (O43526 whole entry): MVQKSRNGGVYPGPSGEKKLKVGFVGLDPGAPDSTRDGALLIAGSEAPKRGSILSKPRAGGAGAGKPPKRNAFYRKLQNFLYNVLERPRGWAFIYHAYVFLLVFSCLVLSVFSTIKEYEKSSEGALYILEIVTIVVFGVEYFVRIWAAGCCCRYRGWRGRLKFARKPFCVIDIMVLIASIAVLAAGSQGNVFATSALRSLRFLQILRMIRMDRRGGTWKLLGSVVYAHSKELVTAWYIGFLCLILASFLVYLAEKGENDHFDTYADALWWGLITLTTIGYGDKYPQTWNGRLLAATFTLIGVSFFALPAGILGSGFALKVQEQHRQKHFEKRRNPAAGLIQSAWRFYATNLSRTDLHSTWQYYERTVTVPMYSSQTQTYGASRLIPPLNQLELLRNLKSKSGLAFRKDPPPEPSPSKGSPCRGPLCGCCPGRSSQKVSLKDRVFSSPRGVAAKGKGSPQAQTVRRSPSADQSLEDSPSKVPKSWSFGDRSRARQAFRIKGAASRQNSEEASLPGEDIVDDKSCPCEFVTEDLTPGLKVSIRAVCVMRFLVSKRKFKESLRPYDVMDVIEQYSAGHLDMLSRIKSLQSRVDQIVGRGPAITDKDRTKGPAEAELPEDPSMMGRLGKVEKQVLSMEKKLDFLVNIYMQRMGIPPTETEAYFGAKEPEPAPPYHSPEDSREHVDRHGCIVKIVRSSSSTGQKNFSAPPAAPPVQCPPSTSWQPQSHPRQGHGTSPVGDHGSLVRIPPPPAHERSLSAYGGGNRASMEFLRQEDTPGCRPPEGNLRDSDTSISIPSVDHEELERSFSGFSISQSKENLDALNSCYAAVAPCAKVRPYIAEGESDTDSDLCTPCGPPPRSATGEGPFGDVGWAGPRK

`Cc1cc(N2CCCc3ccsc3C2)cc(C)c1NC(=O)CC(C)(C)C` [Compound 03026, N-(2,6-dimethyl-4-(4,5,6,8-tetrahydro-7H-thieno[2,3-c]azepin-7-yl)phenyl)-3,3-dimethylbutanamide] gave an EC50 [1] of 0.088 µM.
In the case of `Cc1cc(N2CCCc3cscc3C2)cc(C)c1NC(=O)CC(C)(C)C` [Compound 03027, N-(2,6-dimethyl-4-(4,6,7,8-tetrahydro-5H-thieno[3,4-c]azepin-5-yl)phenyl)-3,3-dimethylbutanamide], the EC50 [1] is reported as 0.147 µM.
In the case of `Cc1cc(N2CCCc3sccc3C2)cc(C)c1NC(=O)CC(C)(C)C` [Compound 03028, N-(2,6-dimethyl-4-(4,6,7,8-tetrahydro-5H-thieno[3,2-c]azepin-5-yl)phenyl)-3,3-dimethylbutanamide], the EC50 [1] is reported as 0.272 µM.
`Cc1cc(N2CCCc3cccnc3C2)cc(C)c1NC(=O)CC(C)(C)C` [Compound 03029, N-(2,6-dimethyl-4-(5,6,7,9-tetrahydro-8H-pyrido[2,3-c]azepin-8-yl)phenyl)-3,3-dimethylbutanamide] showed an EC50 [1] of 14.7 µM.
With `Cc1cc(N2CCCCc3sccc32)cc(C)c1NC(=O)CC(C)(C)C` [Compound 03034, (N-(2,6-dimethyl-6-(1-tert-butylacetyl)aniline))-(5,6,7,8-tetrahydro-4H)-thieno [3,2]azaanthracene] the EC50 [1] was 0.071 µM.
In the case of `Cc1cc(N2CCCCc3ncccc32)cc(C)c1NC(=O)CC(C)(C)C` [Compound 03037, N-(2,6-Dimethyl-4-(6,7,8,9-tetrahydro-5H-pyrido[32-b]azepin-5-yl)phenyl)-3,3-dimethylbutanamide], the EC50 [1] is reported as 6.48 µM.
With `Cc1cc2c(s1)CCCCN2c1cc(C)c(NC(=O)CC(C)(C)C)c(C)c1` [Compound 03039, N-(2,6-dimethyl-4-(2-methyl-5,6,7,8-tetrahydro-4H-thieno[3,2-b]azepin-4-yl)phenyl)-3,3-dimethylbutyramide] the EC50 [1] was 0.409 µM.
`Cc1cc(N2CCCc3sc(Cl)cc3C2)cc(C)c1NC(=O)CC(C)(C)C` [Compound 03043, N-(4-(2-chloro-4,6,7,8-tetrahydro-5H-thieno[3,2-c]azepin-5-yl)-2,6-dimethylphenyl)-3,3-dimethylbutanamide] gave an F ([2]; Gavage 5 mg/kg) of 12.79%, an AUC(0-inf) ([2]; Intravenous 1 mg/kg) of 964 ng·h/mL and an AUC(0-t) ([2]; Intravenous 1 mg/kg) of 957 ng·h/mL. For the same compound, the Cmax ([2]; Intravenous 1 mg/kg) was 2040 ng/mL, the half-life ([2]; Intravenous 1 mg/kg) was 1.42 h and the AUC(0-inf) ([2]; po, Gavage 5 mg/kg) was 1110 ng·h/mL. It also gave an AUC(0-t) ([2]; po, Gavage 5 mg/kg) of 612 ng·h/mL, a Cmax ([2]; po, Gavage 5 mg/kg) of 129 ng/mL and a Tmax ([2]; po, Gavage 5 mg/kg) of 0.25 h. For the same compound, the half-life ([2]; po, Gavage 5 mg/kg) was 12.3 h, the concentration at 1 h [3, 5] was 67.1 ng/g and the concentration at 4 h [3, 5] was 65.7 ng/g. The concentration at 8 h [3, 5] was 20 ng/g, the Kp [3] was 1 to 2.4 and the Kp at 1 h [3] was 2.4. For the same compound, the Kp at 4 h [3] was 1.5, the Kp at 8 h [3] was 1 and the concentration at 1 h [3, 6] was 32.2 ng/mL. For the same compound, the concentration at 4 h [3, 6] was 47.9 ng/mL, the concentration at 8 h [3, 6] was 20.8 ng/mL and the “increase of activity versus 6-membered ring comparison compound (ratio of EC50)” value [1] was “about 2.83 times”. It also gave an EC50 [1] of 0.023 µM.
In the case of `Cc1cc(N2CCCc3cc(Cl)sc3C2)cc(C)c1NC(=O)CC(C)(C)C` [Compound 03044, N-(4-(2-chloro-4,5,6,8-tetrahydro-7H-thieno[2,3-c]azepin-7-yl)-2,6-dimethylphenyl)-3,3-dimethylbutanamide], the F ([2]; Gavage 5 mg/kg) is reported as 13.9%, the AUC(0-inf) ([2]; Intravenous 1 mg/kg) is reported as 1060 ng·h/mL and the AUC(0-t) ([2]; Intravenous 1 mg/kg) is reported as 1040 ng·h/mL. For the same compound, the Cmax ([2]; Intravenous 1 mg/kg) was 1740 ng/mL, the half-life ([2]; Intravenous 1 mg/kg) was 1.8 h and the AUC(0-inf) ([2]; po, Gavage 5 mg/kg) was 889 ng·h/mL. It also gave an AUC(0-t) ([2]; po, Gavage 5 mg/kg) of 723 ng·h/mL, a Cmax ([2]; po, Gavage 5 mg/kg) of 118 ng/mL and a Tmax ([2]; po, Gavage 5 mg/kg) of 0.67 h. The half-life ([2]; po, Gavage 5 mg/kg) was 7.08 h, the concentration at 1 h [3, 5] was 251 ng/g and the concentration at 4 h [3, 5] was 102 ng/g. For the same compound, the concentration at 8 h [3, 5] was 67.6 ng/g, the Kp [3] was 1 to 2.4 and the Kp at 1 h [3] was 2.2. For the same compound, the Kp at 4 h [3] was 2.1, the Kp at 8 h [3] was 1.7 and the concentration at 1 h [3, 6] was 112 ng/mL. The concentration at 4 h [3, 6] was 50.2 ng/mL, the concentration at 8 h [3, 6] was 41.3 ng/mL and the EC50 [1] was 0.057 µM.
Work on `Cc1cc(N2CCCCc3sc(Cl)cc32)cc(C)c1NC(=O)CC(C)(C)C` [Compound 03049, N-(4-(2-chloro-5,6,7,8-tetrahydro-4H-thieno[3,2-b]azepin-4-yl)-2,6-dimethylphenyl)-3,3-dimethylbutanamide] yielded an EC50 [1] of 0.26 µM.
With `Cc1cc(N2CCOc3cc(F)ccc3C2)cc(C)c1NC(=O)CC(C)(C)C` [Compound 03058, N-(4-(8-fluoro-2,3-dihydrobenzo[f][1,4]oxazepin-4(5H)-yl)-2,6-dimethylphenyl)-3,3-dimethylbutanamide] the “increase of activity versus 6-membered ring comparison compound (ratio of EC50)” value [1] was 12.25 times, the EC50 [1] was 0.008 µM and the F ([4]; Gavage 1 mg/kg) was 30.47%. The AUC(0-inf) [4, 7] was 7.2 ng·h/mL, the AUC(0-t) [4, 7] was 7.2 ng·h/mL and the Cmax [4, 7] was 15.1 ng/mL. The half-life [4, 7] was 0.73 h, the AUC(0-inf) [4, 8] was 43.6 ng·h/mL and the AUC(0-t) [4, 8] was 43.6 ng·h/mL. The Cmax [4, 8] was 17 ng/mL, the Tmax [4, 8] was 0.5 h and the half-life [4, 8] was 1.05 h.
`Cc1cc(N2CCCOc3cc(F)ccc32)cc(C)c1NC(=O)CC(C)(C)C` [Compound 03059, N-(4-(8-fluoro-3,4-dihydrobenzo[b] [1,4]oxazepine-5(2H)-yl)-2,6-dimethylphenyl)-3,3-dimethylbutanamide] showed an EC50 [1] of 0.86 µM.
With `Cc1cc(N2CCOc3cc(F)ccc32)cc(C)c1NC(=O)CC(C)(C)C` [Compound 03060, N-(2,6-dimethyl-6-(1-tert-butylacetyl)aniline)) 4-(7-fluoro-2,3-dihydro-4H-benzo[1,4] oxazine] the EC50 [1] was > 100 µM.
For `Cc1ccc2c(c1)COCCN2c1cc(C)c(NC(=O)CC(C)(C)C)c(C)c1` [Compound 03066], the EC50 [1] was 0.049 µM.
Compound `Cc1cc(N2CCc3cc(F)ccc3C2)cc(C)c1NC(=O)CC(C)(C)C` [Compound B, reference compound] has an EC50 [1] of 0.098 µM.
With `O=C(Nc1ccc(Cl)nc1)c1ccc(F)cc1` [ZTZ240, reference compound] the EC50 [1] was 8.23 µM.
